Measured values: ChEMBL document CHEMBL1201862, “PubChem BioAssay data set” (2004)
Calls of active or inactive are those of the source.

Experiments:
[1] = target: G-protein coupled receptor 55 (Homo sapiens, UniProt Q9Y2T6); assay: inhibition of LPI-stimulated GPR55 beta-arrestin translocation – imaging, U2OS, beta-arrestin-GFP, LPI agonist, primary screen (AID 2013); type: functional;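 further: antagonist potency measured as reduced agonist-driven arrestin aggregation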
[2] = target: SWI/SNF-related matrix-associated actin-dependent regulator of chromatin subfamily A member 2 (Homo sapiens, UniProt P51531); assay: Luminescence-based cell-based high throughput dose response assay to identify activators of the function of SWI/SNF related, matrix associated, actin dependent regulator of chromatin, subfamily a, member 2 (SMARCA2, BRM).; type: functional
[3] = Counterscreen for activators of the function of SWI/SNF related, matrix associated, actin dependent regulator of chromatin, subfamily a, member 2 (SMARCA2, BRM): Luminescence-based cell-based high throughput dose response assay to identify non-selective compounds using the VP16 reporter assay.; type: functional
Protein RecA = target: T1, Protein RecA (Mycobacterium tuberculosis, UniProt P9WHJ3); assay: Fluorescence Cell-Free Homogeneous Dose Retest to Identify Inhibitors of RecA-Intein Splicing Activity. [Related pubchem assays (depositor defined):AID2097, AID2223, AID489010, AID492950]; type: functional
T1 sequence (P9WHJ3 whole entry): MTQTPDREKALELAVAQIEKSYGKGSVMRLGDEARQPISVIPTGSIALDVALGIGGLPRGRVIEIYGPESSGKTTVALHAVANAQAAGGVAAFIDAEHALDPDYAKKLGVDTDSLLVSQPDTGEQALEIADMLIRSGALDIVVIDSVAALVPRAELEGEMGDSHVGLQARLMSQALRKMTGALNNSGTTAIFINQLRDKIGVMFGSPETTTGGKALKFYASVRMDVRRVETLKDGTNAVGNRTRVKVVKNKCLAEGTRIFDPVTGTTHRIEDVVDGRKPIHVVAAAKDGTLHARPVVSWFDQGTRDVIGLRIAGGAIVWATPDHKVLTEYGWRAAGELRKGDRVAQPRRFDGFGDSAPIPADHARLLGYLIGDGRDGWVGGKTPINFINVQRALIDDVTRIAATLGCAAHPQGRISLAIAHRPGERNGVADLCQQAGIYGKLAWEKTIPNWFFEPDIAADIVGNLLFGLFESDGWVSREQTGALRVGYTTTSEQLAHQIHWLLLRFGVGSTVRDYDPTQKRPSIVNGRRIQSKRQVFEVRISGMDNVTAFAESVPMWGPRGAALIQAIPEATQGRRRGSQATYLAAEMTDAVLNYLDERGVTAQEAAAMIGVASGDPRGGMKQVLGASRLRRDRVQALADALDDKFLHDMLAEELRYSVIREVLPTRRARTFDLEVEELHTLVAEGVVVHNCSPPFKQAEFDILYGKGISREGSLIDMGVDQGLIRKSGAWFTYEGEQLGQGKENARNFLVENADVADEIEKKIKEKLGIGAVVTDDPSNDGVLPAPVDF

[4] = target: T2, Replicative DNA helicase DnaB (Mycobacterium tuberculosis, UniProt P9WMR3); assay: DnaB intein splicing inhibitors, dose response, biochemical, cell-free fluorescence (AID 449749); type: functional
T2 sequence (P9WMR3 whole entry): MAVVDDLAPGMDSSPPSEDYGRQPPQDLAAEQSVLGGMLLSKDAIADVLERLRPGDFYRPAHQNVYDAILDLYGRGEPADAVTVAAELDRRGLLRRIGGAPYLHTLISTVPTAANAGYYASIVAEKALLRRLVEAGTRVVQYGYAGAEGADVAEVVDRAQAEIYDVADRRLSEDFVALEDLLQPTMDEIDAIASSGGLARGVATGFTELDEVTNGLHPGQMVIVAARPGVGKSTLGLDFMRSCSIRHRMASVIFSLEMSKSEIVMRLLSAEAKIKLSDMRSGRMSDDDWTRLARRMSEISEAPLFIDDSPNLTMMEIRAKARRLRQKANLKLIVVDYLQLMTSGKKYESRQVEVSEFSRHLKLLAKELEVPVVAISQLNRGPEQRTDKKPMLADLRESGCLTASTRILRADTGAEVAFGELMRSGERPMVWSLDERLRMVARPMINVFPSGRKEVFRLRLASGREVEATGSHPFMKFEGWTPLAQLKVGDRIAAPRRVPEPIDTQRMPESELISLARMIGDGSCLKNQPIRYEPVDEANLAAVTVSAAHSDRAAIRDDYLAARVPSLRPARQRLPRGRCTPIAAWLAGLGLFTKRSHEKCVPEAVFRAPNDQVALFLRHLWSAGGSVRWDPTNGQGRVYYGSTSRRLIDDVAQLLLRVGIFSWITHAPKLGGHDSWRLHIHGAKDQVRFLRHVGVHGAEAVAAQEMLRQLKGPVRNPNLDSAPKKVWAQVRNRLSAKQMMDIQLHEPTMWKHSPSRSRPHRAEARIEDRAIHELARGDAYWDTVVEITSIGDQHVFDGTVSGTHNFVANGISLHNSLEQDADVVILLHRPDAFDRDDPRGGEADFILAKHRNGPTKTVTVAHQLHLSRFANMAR

[5] = HIV-1 AD8 envelope cell-cell fusion blockers – cherry-pick, dose response (AID 652062); type: functional, cell-based;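 further: luciferase signal from cell-cell fusion driven by HIV-1 clade B AD8 Env; potency is for inhibitors of fusion seen as a drop in luminescence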
[6] = blockers of HIV-1 envelope-mediated cell-cell fusion – cherry-pick, dose response (AID 652057); type: functional, cell-based
[7] = off-target signal loss in HeLa-CEM21 co-culture – HeLa F-luc CTL cells, cherry-picked, counter-screen for HIV-1 Env fusion inhibitor project, dose response (AID 652040); type: functional, cell-based;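 further: potency for signal decrease marking cytotoxic or nonspecific inhibition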
[8] = viability loss in CEM21 cells – cell-based, CellTiter-Glo luminescence, cherry-picked, cytotoxicity control for viral fusion inhibitor project, dose response (AID 652042); type: functional;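 further: potency for signal decrease meaning cytotoxicity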
[9] = target: T3, Oxysterols receptor LXR-beta (Homo sapiens, UniProt P55055); type: functional, cell-based;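 further: agonist activity at LXR measured by a cell-based luminescence readout across a dose range, run as a counterscreen for daf-12 agonists; HEK293 cells with Gal4-LXR fusion and GAL4-driven luciferase reporter; potency for activation of Gal4-LXR reporter so compounds are agonists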
T3 sequence (P55055 whole entry): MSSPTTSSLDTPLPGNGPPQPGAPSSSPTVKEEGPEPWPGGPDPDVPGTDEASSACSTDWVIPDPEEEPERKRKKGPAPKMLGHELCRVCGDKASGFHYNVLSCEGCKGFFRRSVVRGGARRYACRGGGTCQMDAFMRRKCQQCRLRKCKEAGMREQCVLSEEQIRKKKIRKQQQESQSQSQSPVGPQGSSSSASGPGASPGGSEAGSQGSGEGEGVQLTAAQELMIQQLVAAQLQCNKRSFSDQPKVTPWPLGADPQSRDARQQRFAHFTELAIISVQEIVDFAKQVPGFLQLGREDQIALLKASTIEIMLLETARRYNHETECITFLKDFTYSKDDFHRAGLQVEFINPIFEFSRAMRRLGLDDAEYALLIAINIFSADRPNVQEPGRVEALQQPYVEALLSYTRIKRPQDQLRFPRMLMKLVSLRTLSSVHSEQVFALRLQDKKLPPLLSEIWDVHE

[10] = viability of uninfected HEp-2 cells – cell-based, HTS, cytotoxicity control for RSV inhibitor project, dose response (AID 2410); type: functional; settings: human respiratory syncytial virus
[11] = blockers of bursicon-stimulated LGR2 cAMP reporter – cell-based, HEK293, CRE-luciferase reporter, cherry pick, set 2, dose response (AID 743343); type: functional;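 further: transfected cells were stimulated with diluted bursicon conditioned medium after compound addition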
[12] = blockade of melanocortin 4 receptor signaling – cell-based, plate reader, cherry pick, counter-screen for LGR2 antagonist project, dose response (AID 743444); type: functional;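 further: transfected HEK 293 cells stimulated with alpha-MSH peptide; potency of inhibitors of the alpha-MSH evoked signal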
[13] = viability loss of HPDE-C7K cells – cell-based, fluorescence, HTS, primary screen (AID 431); type: functional; settings: Homo sapiens
[14] = test system: Streptococcus sp. 'group A'; assay: Streptococcus pyogenes SK(-)GAS viability under kanamycin – luminescence, BacTiterGlo, confirmation, counter-screen for streptokinase expression inhibitor project, dose response (AID 1900); type: functional, organism-based
Streptokinase A = target: T4, Streptokinase A (Streptococcus pyogenes serotype M1, UniProt P10520); assay: viability-normalized secreted streptokinase activity reduction – plasminogen activation absorbance, OD405, dose response (AID 1914); type: functional, Streptococcus pyogenes M1 GAS;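 further: secreted streptokinase activity via plasminogen activation per viability signal from cell pellet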
T4 sequence (P10520 whole entry): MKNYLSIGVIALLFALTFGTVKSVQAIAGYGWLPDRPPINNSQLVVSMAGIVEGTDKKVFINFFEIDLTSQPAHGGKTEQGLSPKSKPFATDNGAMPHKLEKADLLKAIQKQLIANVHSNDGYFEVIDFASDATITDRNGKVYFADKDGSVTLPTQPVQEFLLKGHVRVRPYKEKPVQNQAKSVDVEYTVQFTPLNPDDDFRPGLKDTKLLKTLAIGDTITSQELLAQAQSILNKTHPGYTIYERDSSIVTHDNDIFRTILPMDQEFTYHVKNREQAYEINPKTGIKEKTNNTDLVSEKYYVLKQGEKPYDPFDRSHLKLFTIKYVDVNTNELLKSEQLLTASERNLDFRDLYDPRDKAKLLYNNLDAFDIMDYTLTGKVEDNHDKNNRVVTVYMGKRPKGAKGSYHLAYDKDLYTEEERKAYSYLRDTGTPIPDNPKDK

Streptococcus = assay: GAS UMAA2166 growth inhibition – luminescence, BacTiterGlo, counter-screen for streptokinase expression inhibitor project, dose response (AID 1915); type: functional, organism-based;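 further: potency for reduction of bacterial viability or growth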
[15] = HPDE-C7 pancreatic duct cell viability loss – fluorescence, HTS (AID 430); type: functional, cell-based; settings: Homo sapiens

Chain of G-protein coupled receptor 55 (Q9Y2T6 whole entry): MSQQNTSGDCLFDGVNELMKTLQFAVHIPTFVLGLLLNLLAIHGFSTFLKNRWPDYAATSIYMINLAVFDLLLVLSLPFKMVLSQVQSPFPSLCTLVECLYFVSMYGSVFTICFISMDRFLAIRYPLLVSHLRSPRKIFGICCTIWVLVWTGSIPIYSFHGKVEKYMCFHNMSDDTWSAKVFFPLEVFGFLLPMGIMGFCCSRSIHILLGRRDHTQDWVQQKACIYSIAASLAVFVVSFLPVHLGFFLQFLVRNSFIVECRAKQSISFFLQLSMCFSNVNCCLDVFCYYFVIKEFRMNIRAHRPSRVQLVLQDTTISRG
Chain of SWI/SNF-related matrix-associated actin-dependent regulator of chromatin subfamily A member 2 (P51531 whole entry): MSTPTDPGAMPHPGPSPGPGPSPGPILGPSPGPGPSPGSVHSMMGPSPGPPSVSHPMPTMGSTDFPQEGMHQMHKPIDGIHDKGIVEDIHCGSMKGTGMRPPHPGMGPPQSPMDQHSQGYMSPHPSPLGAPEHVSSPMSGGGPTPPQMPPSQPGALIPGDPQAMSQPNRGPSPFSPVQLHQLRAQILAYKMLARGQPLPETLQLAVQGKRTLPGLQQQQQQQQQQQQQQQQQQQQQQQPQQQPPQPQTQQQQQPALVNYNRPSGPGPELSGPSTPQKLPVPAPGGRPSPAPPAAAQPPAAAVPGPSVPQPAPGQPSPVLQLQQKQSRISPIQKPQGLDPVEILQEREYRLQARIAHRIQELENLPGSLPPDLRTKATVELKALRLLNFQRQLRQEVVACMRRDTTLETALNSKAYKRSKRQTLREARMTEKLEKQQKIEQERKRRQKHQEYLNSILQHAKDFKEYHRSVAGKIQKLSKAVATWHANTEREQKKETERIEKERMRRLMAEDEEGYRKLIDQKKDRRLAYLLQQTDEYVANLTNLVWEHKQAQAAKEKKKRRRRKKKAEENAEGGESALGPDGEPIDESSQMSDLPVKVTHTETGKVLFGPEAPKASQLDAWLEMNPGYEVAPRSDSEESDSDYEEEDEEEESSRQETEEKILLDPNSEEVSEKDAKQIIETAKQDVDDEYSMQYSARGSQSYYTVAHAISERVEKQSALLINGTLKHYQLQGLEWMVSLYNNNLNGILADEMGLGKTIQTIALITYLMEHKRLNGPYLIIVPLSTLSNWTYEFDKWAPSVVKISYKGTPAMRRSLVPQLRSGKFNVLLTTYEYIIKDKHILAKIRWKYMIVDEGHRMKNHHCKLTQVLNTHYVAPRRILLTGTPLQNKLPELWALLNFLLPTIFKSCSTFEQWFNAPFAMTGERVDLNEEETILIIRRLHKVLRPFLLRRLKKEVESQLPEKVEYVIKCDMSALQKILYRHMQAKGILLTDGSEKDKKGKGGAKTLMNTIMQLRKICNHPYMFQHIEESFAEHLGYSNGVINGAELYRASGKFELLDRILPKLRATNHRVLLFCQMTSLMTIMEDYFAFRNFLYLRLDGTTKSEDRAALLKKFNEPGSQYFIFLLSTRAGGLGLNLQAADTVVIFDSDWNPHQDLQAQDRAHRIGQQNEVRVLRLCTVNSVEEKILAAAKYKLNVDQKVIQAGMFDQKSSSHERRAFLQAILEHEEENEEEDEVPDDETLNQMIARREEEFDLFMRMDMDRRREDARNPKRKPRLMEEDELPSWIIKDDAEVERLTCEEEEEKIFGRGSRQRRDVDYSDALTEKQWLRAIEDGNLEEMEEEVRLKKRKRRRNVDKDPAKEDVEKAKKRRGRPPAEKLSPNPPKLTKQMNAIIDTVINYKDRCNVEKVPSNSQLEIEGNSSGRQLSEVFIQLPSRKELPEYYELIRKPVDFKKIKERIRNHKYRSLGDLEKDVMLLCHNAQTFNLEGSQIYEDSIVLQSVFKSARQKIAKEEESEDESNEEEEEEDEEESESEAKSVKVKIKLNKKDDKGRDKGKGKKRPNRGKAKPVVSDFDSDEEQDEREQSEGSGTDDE

COc1ccc(C2c3ccc(O)cc3Oc3ncn(CC(C)C)c(=N)c32)cc1 (centres undefined)
IC50 [1]: 2.27 µM (active)

Cc1cc(C)n2nc(CNS(=O)(=O)c3c(F)c(F)c(F)c(F)c3F)nc2n1
EC50 [2]: > 91.2 µM (inactive)
EC50 [3]: > 91.2 µM (inactive)
EC50 (Protein RecA): 10.8 µM (active)
AC50 [4]: 38.5 µM (active)

c1ccc(Cc2cnc(N3CCN(Cc4csc5ccccc45)CC3)nc2)cc1
AC50 [5]: 2.98 µM (active)
AC50 [6]: 2.86 µM (active)
AC50 [7]: 65 µM (active)
AC50 [8]: 47.5 µM (active)

CC/C(=N\NC(=O)c1ccoc1C)c1ccc(C)o1
EC50 [9]: > 67.5 µM (inactive)

CCN(CC)S(=O)(=O)c1cc(C(=O)OCC(=O)Nc2ccc(-c3nc4ccc(C)cc4s3)cc2)ccc1F
EC50 [9]: > 67.5 µM (inactive)
CC50 [10]: 11.4 µM (active)
AC50 [11]: 3.17 µM (active)
AC50 [12]: 3.11 µM (active)

Cc1ccc(COC(=O)c2cc(S(=O)(=O)N3CCCCC3)ccc2N2CCOCC2)cc1
AC50 [5]: 10.6 µM (active)
AC50 [6]: 19.8 µM (active)
AC50 [7]: > 70 µM (inactive)
AC50 [8]: 68.1 µM (active)

O=C(NC(=S)NC1CCN(Cc2ccccc2)CC1)c1ccc(F)cc1
IC50 [1]: 4.67 µM (active)

CCCOC(=O)c1ccc(Oc2c(C)n[nH]c2-c2ccc(OC)cc2O)cc1
EC50 [13]: 6.36 µM (active)
EC50 [14]: 14.1 µM (active)
EC50 (Streptokinase A): > 150 µM (not active)
EC50 (Streptococcus): 28.5 µM (active)
EC50 [15]: 12.2 µM (active)
